The results in this text go back to US7972629B2, “Product comprising a combination of milk serum apoproteins and free fatty acids” (Westgate Biological Ltd., priority 2001, dated 2011).

Holding throughout (format): cell-based
For experiment [1], the system named is methicillin resistant Staphylococcus aureus (MRSA). Nature of the experiment: Adhesion of MRSA to Buccal Epithelial Cells. Conditions: 5 mg/ml, Diagram 11. On the procedure: The basis of the technique involves exposing a standardised (known) number of yeast or bacteria to a standardised substrate (number of BEC's), allowing a 60 minute incubation period for the cells to adhere and then filtering the combined population through a 10 micron nylon mesh. The mesh will retain BEC's and those yeast or bacteria adhering to them, non-adhering yeast or bacteria will be washed through, where they may be enumerated in the filtrate and expressed as a percentage of the original population not adhering; percent adherence being the inverse of this.
Fluorescent labelling of bacteria is conducted after adhesion (on those cells in the filtrate) using fluorescent dyes such as BCECF/AM (Calbiochem Biosciences Inc., La Jolla, Calif.) and Syto 13 (Molecular Probes, Oregon, USA). Labelling methods are as described by the manufacturers of the dyes. The amount of fluorescence is measured in a fluorimeter (Fluroscan from Lab-Systems, Helsinki, Finland) and is in direct relationship to the number of bacteria present.
(§1) The following general method may be used to measure adherence of the yeast Candida albicans to BEC and the inhibition of that adherence using the formulation of milk serum apoprotein(s) as described above. The same general method is suitable for measuring inhibition of adherence of Staphylococcus aureus to BEC's and also inhibition of adherence of Streptococcus mutans, with the exception that the substrate for Streptococcus mutans, is powdered hydroxylapatite available from Merck and used as a surrogate for dental enamel.
MRSA is routinely sub-cultured on blood agar and a single colony is used to inoculate a tube of Oxoid Brain Heart Infusion Broth as described in Methods and Materials above. After 8 hours, the innoculum is used in growth and adhesion assays using the methodologies described above.
MRSA adheres to BEC's, and these are used here in a manner similar to that described for Candida albicans. […] Bovine Serum Albumin is used as a ‘protein blank’ and this material has no effect on the adhesion of MRSA to BEC's.

Another experiment deals with Streptococcus mutans. The experiment in a line: Adhesion of Streptococcus mutans to hydroxyapatite beads. Conditions: 0.8 mg/ml; saliva coated hydroxyapatite; Diagram 13.
Source text: as §1
In measuring inhibition of adherence of Streptococcus mutans, hydroxyapatite powder from Merck was used as a surrogate for dental enamel. The test procedure is as described in Methods and Materials above, with the following modifications: 1 ml of fresh culture, adjusted to an optical density of 0.1 at 600 nm, is added to 5 mg of saliva coated hydroxyapatite beads; allowed to adhere for 1 hour; and centrifuged at slow speed to sediment the hydroxyapatite with adhering bacteria. The number of bacteria remaining in the supernatant are that percentage of the original population not adhering and are expressed as a percentage of the original population; the inverse being […].

A further experiment has as its system Candida albicans. Nature of the experiment: Adhesion of Candida albicans to Buccal Epithelial Cells (adhesion assay). Conditions: 1 mg/ml; yeast pre-treated 10 minutes; Diagram 8. From the text: Measurement of adhesion, and inhibition of the same, requires selection of a suitable substrate and a method of enumerating number of organisms adhering (or not) to that substrate. Most potential pathogenic organisms adhere to mucosal epithelial cells and a convenient source of a representative mucosal epithelial cell may be easily harvested from inside the cheek. Buccal epithelial cells (BEC's) are harvested by scraping the mucosal membranes in the mouth using a wooden tongue depresser as follows.
Standard wooden tongue depressers as used in clinical examination of the mouth are wrapped, in tin foil and autoclaved. […]
The basis of the technique involves exposing a standardised (known) number of yeast or bacteria to a standardised substrate (number of BEC's), allowing a 60 minute incubation period for the cells to adhere and then filtering the combined population through a 10 micron nylon mesh. The mesh will retain BEC's and those yeast or bacteria adhering to them, non-adhering yeast or bacteria will be washed through, where they may be enumerated in the filtrate and expressed as a percentage of the original population not adhering; percent adherence being the inverse of this. […]
Both the washed BEC's and the freshly grown washed yeast cells are counted microscopically and the concentrations adjusted such that the yeast is in the order of 1×10^5 and BEC's at 1×10^3. […]

As to `O=C([O-])CC(O)(CC(=O)[O-])C(=O)[O-].[Na+].[Na+].[Na+]` [sodium citrate], the results for the “inhibition of adhesion of MRSA to Buccal Epithelial Cell” value in experiment [1] and in experiment [1] (listed as Sodium citrate) were “approximately 10%” and “no effect on adhesion”, respectively. In addition, the “inhibition of adhesion of Streptococcus mutans to hydroxyapatite beads” value in the experiment on Streptococcus mutans is about 10%.

As for “Bovine Serum Albumin: protein blank in Diagrams 8, 11 and 13”, the “inhibition of adhesion of MRSA to Buccal Epithelial Cell” value in experiment [1] is “no effect”. In addition, the “inhibition of adhesion of Streptococcus mutans to hydroxyapatite beads” value in the experiment with Streptococcus mutans is on record as about 30%. Further, in the experiment with Candida albicans, the “inhibition of adhesion of Candida albicans to Buccal Epithelial Cell” value is on record as 13%.
